# Assay results as given in patent US20050267182A1, “Urea derivatives as FLT-3 modulators” (Ambit Biosciences Corporation, priority 2003, published 2005).
# How the values were obtained:
# FLT3 = molecular target: T1, FLT3 (Homo sapiens, UniProt P36888); test: Binding constant (Kd) measurement, phage-displayed kinase competition binding assay; conditions: for Binding Assay: FLT3(DKIN) / Kd: FLT3(DKIN) construct; for Binding Assay: FLT3(JMminus): FLT3(JMminus) construct
# T1 construct: FLT3(DKIN); made in house
# T1 sequence (P36888 610-943 limits assumed): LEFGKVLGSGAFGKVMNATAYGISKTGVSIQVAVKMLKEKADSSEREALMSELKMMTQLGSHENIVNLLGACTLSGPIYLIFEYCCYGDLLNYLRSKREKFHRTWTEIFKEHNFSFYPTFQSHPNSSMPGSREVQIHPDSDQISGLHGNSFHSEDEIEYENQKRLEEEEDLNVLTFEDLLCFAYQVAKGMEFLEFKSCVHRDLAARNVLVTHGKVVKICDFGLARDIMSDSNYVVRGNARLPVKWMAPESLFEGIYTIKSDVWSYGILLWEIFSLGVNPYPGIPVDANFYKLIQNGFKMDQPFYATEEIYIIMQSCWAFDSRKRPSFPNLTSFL
# Source text: Binding Constant (Kd) Measurements for Small-Molecule-Kinase Interactions
# The term “ND” represents non-determined values.
# MV4,11 cells = test: FLT3 assay using MV4,11 cells (cellular proliferation, MTS); assay type: cell-based, human; conditions: cell assay code CS0001
# Procedure: The ability of FLT3 kinase inhibitors to inhibit cellular proliferation was also examined. MV4:11 was a cell line derived from a patient with acute myelogenous leukemia.
# FLT3 Assay Using MV4,11 Cells
# MV4,11 cells were grown in an incubator @ 37° C. in 5% CO2 in Medium 2 (RPMI, 10% FBS, 4 mM glutamine, Penn/Strep). The cells were counted daily and the cell density was kept between 1e5 and 8e5 cells/ml.
# Day One: Enough cells were harvested for experiments to be conducted in 50 ml conical tubes. The harvested cells were spun at 500 g for 5 min at 4° C., the supernatant was then aspirated and the cells were resuspended in the starting volume of 1×PBS. The cells were again spun at 500 g for 5 min at 4° C. and the supernatant again aspirated. The cells were then resuspended in medium 3 (DMEM w/ glut, 10% FBS, Penn/Strep) to a density of 4e5 cells/ml and incubated (37° C. in 5% CO2 O/N.
# Day Two: The cells were counted and enough medium 3 was added to decrease density to 2e5 cells/ml. 50 ul (10,000 cells) was aliquoted into each well of a 96 well optical plate using multichannel pipetman. The compound plate was then set up by aliquoting 3 μl of negative control (DMSO) into column 1 of a 96 well 300 ul polypropylene plate, aliquoting 3 μt of positive control (10 mM AB20121) into column 12 of plate, and aliquoting 3 μl of appropriate compounds from serial dilutions into columns 2-11. To each well, 150 μl of Medium 3 was added and 50 μl of compound/medium mixture from compound plate into rows of optical plate in duplicate. The cells were then incubated @ 37° C. in 5% CO2 for 3 days.
# Day Five: MTS was thawed in a H2O bath. 20 μl of MTS was added to each well of optical plate and the cells were incubated (37° C. in 5% CO2 for 2 hours. The plate was then placed on a plate shaker for 30 seconds on high speed.
Binding Assay: FLT3(DKIN) (FLT3),"Cell Assay: CS0001:IC50 (MV4,11 cells)",Structure (SMILES),also measured
+ + + +,+ + +,Cc1ccc(-c2cc(C(=O)Nc3ccc(NC(=O)Nc4cc(C(C)(C)C)on4)cc3)c(C)o2)cc1 [Compound N120],
+ +,+ +,CC(C)(C)c1cc(NC(=O)Nc2ccc(NC(=O)CC(N)c3ccccc3Cl)cc2)no1 (stereo not drawn) [Compound N44],
+ + + +,+ + +,CC(C)(C)c1cc(NC(=O)Nc2ccc(NC(=O)c3csnn3)cc2)no1 [Compound N14],
,+ +,Cc1sc(NC(=O)Nc2ccc(Cl)cc2)c(C(N)=O)c1C [Compound Z58],Kd (FLT3): > 10 µM
+ + + +,+ + +,CC(C)(C)c1cc(NC(=O)Nc2ccc(NC(=O)Cc3sc(-c4ccc(Cl)cc4)nc3-c3ccccc3)cc2)no1 [Compound N66],
,+ + +,CC(C)(C)c1cc(NC(=O)Nc2ccc(NC(=O)c3nnsc3Sc3ccc(C(F)(F)F)cc3)cc2)no1 [Compound N179],Binding Assay: FLT3(JMminus) (FLT3): + + +
+ +,+ + +,CC(C)(C)c1noc(-c2ccc(NC(=S)Nc3cc(C(C)(C)C)on3)cc2)n1 [Compound P6],
+ + + +,+ + +,CC(C)(C)c1cc(NC(=O)Nc2ccc(NC(=O)C3=Cc4cc(F)cc(S(C)(=O)=O)c4C3)cc2)no1 [Compound N62],
+ + +,+ +,Cc1nc(C(=O)Nc2ccc(NC(=O)Nc3cc(C(C)(C)C)on3)cc2)nn1-c1cc(Cl)cc(Cl)c1 [Compound N15],
+ + + +,+ + +,CCOC(=O)CCc1c(C)[nH]c(C(=O)Nc2ccc(NC(=O)Nc3cc(C(C)(C)C)on3)cc2)c1C [Compound N83],
,+ + +,CC(C)(C)c1cc(NC(=O)Nc2ccc(NC(=O)c3csc(Cc4cccc(C(F)(F)F)c4)n3)cc2)no1 [Compound N180],Binding Assay: FLT3(JMminus) (FLT3): + + + +
+ + + +,+ + +,COc1ccc(NC(=O)Nc2cc(C(F)(F)F)cc(Cl)n2)cc1 [Compound Z71],
,+ +,CC(C)CCOC(=O)c1nnsc1NC(=O)Nc1ccc(Br)cc1 [Compound Z36],Kd (FLT3): > 10 µM
+ + + +,+ + +,CC(C)(C)c1cc(NC(=O)Nc2ccc(C(=O)Nc3ccc(F)cc3F)cc2)no1 [Compound N153],
+ + +,,CC(C)(C)c1cc(NC(=O)Nc2ccc(NC(=O)c3ccc(SC(F)(F)F)cc3)cc2)no1 [Compound N33],"IC50 (MV4,11 cells; Homo sapiens, MV4-11): > 10 µM"
+ + + +,+ + +,CC(C)(C)c1cc(NC(=O)Nc2ccc(NC(=O)c3cccc(SC(F)F)c3)cc2)no1 [Compound N25],
+ +,,Cc1ccc(S(=O)(=O)Nc2ccc(NC(=O)Nc3cc(C(C)(C)C)on3)cc2)cc1 [Compound V2],
+ + +,,COc1ccc(N(N)C(=O)Nc2cc(C(C)(C)C)on2)cc1 [Compound J14],
+ +,,Cc1c(NC(=O)Nc2cc(C(C)(C)C)on2)c(=O)n(-c2ccccc2)n1C [Compound Z45],
+ + +,,O=C(Nc1ccc(Cl)cc1)Nc1ccc(-n2nc(Br)c(Br)c2Br)cc1 [Compound Z49],

# Continued, compound first:
Structure (SMILES),Binding Assay: FLT3(DKIN) (FLT3),"Cell Assay: CS0001:IC50 (MV4,11 cells)",also measured
CCOc1ccc(NC(=O)Nc2cc(C(C)(C)C)on2)cc1 [Compound G20],+ + + +,+ + + +,
CC(C)(C)c1cc(NC(=O)Nc2ccc(OCc3ccc(F)cc3Cl)cc2)no1 [Compound G18],+ + + +,+ + +,
Cc1ccc(COc2ccc(NC(=O)Nc3cc(C(C)(C)C)on3)cc2)cc1 [Compound G15],+ + + +,+ + + +,
CC(C)(C)c1cc(NC(=O)Nc2ccc(OCc3ccccc3C(F)(F)F)cc2)no1 [Compound G4],+ + +,+ +,
Cc1cc(NC(=O)[C@](C)(O)CSc2ccc(F)cc2)ccc1NC(=O)Nc1cc(C(C)(C)C)on1 [Compound N170],,+ + +,Binding Assay: FLT3(JMminus) (FLT3): + + + +
CC(C)(C)c1cc(NC(=O)Nc2ccc(OCc3ccc(OC(F)(F)F)cc3)cc2)no1 [Compound G5],+ + + +,+ + +,
COc1cccc(COc2ccc(NC(=O)Nc3cc(C(C)(C)C)on3)cc2)c1 [Compound G13],+ + + +,+ + + +,
C=CCOc1ccc(NC(=O)Nc2cc(C(C)(C)C)no2)cc1 [Compound G32],+ + + +,+ + + +,
CC1CCCN(CCOc2ccc(NC(=O)Nc3cc(C(C)(C)C)on3)cc2)C1 (stereo not drawn) [Compound G44],+ +,+ +,
CC(C)(C)c1cc(NC(=O)Nc2ccc(OCCN3CCC(O)CC3)cc2)no1 [Compound G48],+ + +,+ +,
CC(C)(C)c1cc(NC(=O)Nc2ccc(OCCN3CCOCC3)cc2)no1 [Compound G40],+ + +,+ +,
Cn1nc(C(C)(C)C)cc1NC(=O)Nc1ccc(OCc2ccccc2)cc1 [Compound H2],+ + + +,+ + + +,
CSc1ccc(NC(=O)Nc2cc(C(C)(C)C)on2)cc1 [Compound A37],+ + + +,,
Cc1ccc(-n2nc(C(C)(C)C)cc2NC(=O)Nc2ccc(OCc3ccccc3)cc2)cc1 [Compound H5],+ + + +,,
CC(C)(C)c1cc(NC(=O)Nc2ccc(OCc3c(Cl)cccc3Cl)cc2)no1 [Compound G19],+ + + +,,
Cc1ccc(-n2nc(C(C)(C)C)cc2NC(=O)Nc2ccc(Cl)cc2)cc1 [Compound H14],+ + + +,,
COc1ccc(NC(=O)Nc2cc(C(C)(C)C)no2)cc1 [Compound A30],+ + + +,,
CC(C)(C)c1cc(NC(=O)Nc2ccccc2)no1 [Compound A2],+ + + +,,
CC(C)c1ccc(NC(=O)Nc2cc(C(C)(C)C)on2)cc1 [Compound A25],+ +,,
CC(C)(C)c1cc(NC(=O)Nc2ccc(C(=O)O)cc2)no1 [Compound C2],+ +,,
CC(C)(C)c1cc(NC(=O)Nc2ccc(O)cc2)no1 [Compound A31],+ + +,,
"Cc1ccc(-n2nc(C(C)(C)C)cc2NC(=O)Nc2ccc(C(C)C)cc2)cc1 [Compound D1, 1-(3-tert-butyl-1-p-tolyl-1H-pyrazol-5-yl)-3-(4-isopropylphenyl)urea]",+ +,,
CSc1ccc(NC(=O)Nc2cc(C(C)(C)C)no2)cc1 [Compound A39],+ + +,,
CCN(CC)CCNC(=O)c1ccc(NC(=O)Nc2cc(C(C)(C)C)on2)cc1 [Compound N102],,,Kd (FLT3): > 10 µM
CC(=O)NS(=O)(=O)c1ccc(NC(=O)Nc2cc(C(C)(C)C)on2)cc1 [Compound V4],,,Kd (FLT3): > 10 µM
O=C(Nc1ccc(Cl)cc1)Nc1cc(C2CC2)nn1-c1ccccc1 [Compound D10],+ + +,,
CC(C)(C)c1cc(NC(=O)Nc2ccc(-c3ccccc3)cc2)no1 [Compound A23],+ + + +,,
